Experimental data: paper PMC12390684 (Viruses, 2025)

biological target: IN-GCN2 interaction (6xHis-IN / GST-GCN2) (UniProt P04585+Q9P2K8); experiment: biochemical; type: binding, HIV-1 IN; human GCN2; conditions: IC50, inhibition of IN-GCN2 interaction, SAR study, fresh dilutions from powder; at least three independent experiments
Sequence (Q9P2K8 192-1024, other chains not shown): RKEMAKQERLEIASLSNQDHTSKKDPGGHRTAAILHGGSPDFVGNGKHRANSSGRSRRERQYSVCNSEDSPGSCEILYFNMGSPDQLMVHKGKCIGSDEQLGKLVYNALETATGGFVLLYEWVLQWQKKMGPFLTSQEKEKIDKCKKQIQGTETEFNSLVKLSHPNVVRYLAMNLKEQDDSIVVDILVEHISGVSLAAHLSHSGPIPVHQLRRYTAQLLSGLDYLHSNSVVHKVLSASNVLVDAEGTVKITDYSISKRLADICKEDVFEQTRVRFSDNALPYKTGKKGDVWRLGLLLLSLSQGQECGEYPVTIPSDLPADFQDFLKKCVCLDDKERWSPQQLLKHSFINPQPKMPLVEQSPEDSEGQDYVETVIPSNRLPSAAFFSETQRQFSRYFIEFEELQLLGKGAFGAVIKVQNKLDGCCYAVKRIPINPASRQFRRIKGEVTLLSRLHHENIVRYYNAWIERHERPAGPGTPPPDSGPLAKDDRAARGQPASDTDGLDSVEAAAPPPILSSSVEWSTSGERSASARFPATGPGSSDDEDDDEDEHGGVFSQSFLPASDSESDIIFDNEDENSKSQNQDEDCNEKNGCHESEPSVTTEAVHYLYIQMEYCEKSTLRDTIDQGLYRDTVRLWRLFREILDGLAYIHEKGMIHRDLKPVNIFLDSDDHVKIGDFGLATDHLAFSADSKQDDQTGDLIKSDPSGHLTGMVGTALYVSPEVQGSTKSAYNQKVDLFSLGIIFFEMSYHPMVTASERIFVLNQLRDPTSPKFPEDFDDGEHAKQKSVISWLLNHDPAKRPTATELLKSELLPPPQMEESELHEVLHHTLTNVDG

SMILES | IC50 [µM]
CCC1(O)CC(OC2CC(N(C)C)C(OC3CC(O)C(OC4CC(O)C(O)C(C)O4)C(C)O3)C(C)O2)c2c(cc3c(c2O)C(=O)c2c(O)ccc(O)c2C3=O)C1C(=O)OC (centres unmarked) [NSC265211] | > 100

same assay, conditions: dose-response assessment

SMILES | effect on IN-GCN2 interaction in dose-response, in words
CC(=O)O[C@@H]1C[C@H]2O[C@@H]3C=C(C)CC[C@]3(C)[C@]1(C)[C@]21CO1 [NSC267023] | inactive

same assay, conditions: read-out: inhibition of IN-GCN2 interaction

SMILES | inhibition at 100 µM [%]
CCC1(O)CC(OC2CC(N(C)C)C(OC3CC(O)C(OC4CC(O)C(O)C(C)O4)C(C)O3)C(C)O2)c2c(cc3c(c2O)C(=O)c2c(O)ccc(O)c2C3=O)C1C(=O)OC (centres unmarked) [NSC265211] | ~60

same assay, conditions: screen, single dose 100 µM, single replicate; residual AlphaLISA signal normalized to DMSO control

SMILES | IN-GCN2 interaction (%)
CO/N=C1\CC(C)N2C(=O)C(C(C)C)NC(=O)C(NC(=O)c3c4nc5c(C(=O)NC6C(=O)NC(C(C)C)C(=O)N7C(C)CC(O)C7C(=O)N(C)CC(=O)N(C)C(C(C)C)C(=O)OC6C)ccc(C)c5oc-4c(C)c(=O)c3N)C(CO)OC(=O)C(C)N(C)C(=O)CN(C)C(=O)C12 (centres unmarked) [NSC237671] | 81.33
CCCCCCCCCC[C@H](C(=O)O)[C@]1(C(=O)O)CCC(=O)O1 [NSC244387] | 146.01
C/C=C\C(C)=C\[C@H](C)C(=O)C[C@H](O)CC1CC(=O)NC(=O)C1 [NSC248958] | 116.00
CC1CC(O)C2C3(C)CCCC2(COC3=O)C12CCC1(CCOC1=O)O2 (centres unmarked) [NSC250429] | 134.45
COc1c2c(cc3c1C1Oc4c(ccc(O)c4CC=C(C)C)C1CO3)OC(C)(C)C=C2 (centres unmarked) [NSC250430] | 16.46
C=C1C(=O)[C@]23[C@H](O)[C@H]1CC[C@H]2[C@@]12CO[C@]3(O)[C@@H](O)[C@@H]1C(C)(C)CC[C@@H]2O [NSC250682] | 99.31
CO[C@H]1/C=C\C=C(/C)C(=O)NC2=CC(=O)C(N)=C(C[C@@H](C)C[C@H](OC)[C@H](O)[C@@H](C)/C=C(\C)[C@@H]1OC(N)=O)C2=O [NSC255109] | 108.78
COC1=C2CC(C)CC(OC)C(O)C(C)/C=C(\C)C(OC(N)=O)C(OC)/C=C\C=C(/C)C(=O)NC(=C(/C=N/N3CCOCC3)C1=O)C2=O (centres unmarked) [NSC255112] | 78.82
COc1ccc(CC2C(=O)NC(C)C(=O)N(C)C3C(=O)N(C)C(Cc4ccc(O)c(c4)Oc4ccc(cc4)C3O)C(=O)NC(C)C(=O)NC(C)C(=O)N2C)cc1 (centres unmarked) [NSC259968] | 109.81
CCCCCC[C@@H]([C@@H](C)O)n1cnc2c(N)ncnc21 [NSC263164] | 111.18
CCC1(O)CC(OC2CC(N(C)C)C(OC3CC(O)C(OC4CC(O)C(O)C(C)O4)C(C)O3)C(C)O2)c2c(cc3c(c2O)C(=O)c2c(O)ccc(O)c2C3=O)C1C(=O)OC (centres unmarked) [NSC265211] | 39.6
COC1C(C)OC(OC2CC(C)(O)Cc3cc4c(c(O)c32)C(=O)c2c(O)cc3c(c2C4=O)OC2OC3(C)C(O)C(N(C)C)C2O)C(OC)C1(C)OC (centres unmarked) [NSC265450] | 99.51
O=C1C=C[C@H](O)[C@@]2(CO)O[C@@H]12 [NSC266032] | 108.08
CC(=O)OC1C(OC(C)=O)C2C(C)CC3OC(=O)C(C)C3CC2(C)C1OC(C)=O (centres unmarked) [NSC266071] | 100.86
O=C1N[C@@H]2C(=C[C@H](O)[C@@H](O)[C@H]2O)c2cc3c(c(O)c21)OCO3 [NSC266535] | 138.97
CO[C@@H]1C[C@](C)(O)Cc2cc3c(c(O)c21)C(=O)c1c(O)cc2c(c1C3=O)O[C@@H]1O[C@@]2(C)[C@H](O)[C@@H](N(C)C)[C@@H]1O [NSC269148] | 113.29
CC(=O)O[C@@H]1[C@@H](O)C2=C3[C@]4(C)[C@@H]1C(C)(C)C(=O)C[C@@H]4[C@]3(O)[C@H](OC(C)=O)[C@@]1(C[C@@H]1C)C2=O [NSC270914] | 122.29
Cc1c(N)nc([C@H](CC(N)=O)NC[C@H](N)C(N)=O)nc1C(=O)N[C@H](C(=O)N[C@H](C)[C@@H](O)[C@H](C)C(=O)N[C@H](C(=O)NCCc1nc(-c2nc(C(=O)NCCCN[C@@H](C)c3ccccc3)cs2)cs1)[C@@H](C)O)[C@@H](O[C@@H]1O[C@@H](CO)[C@@H](O)[C@H](O)[C@@H]1O[C@H]1O[C@H](CO)[C@@H](O)[C@H](OC(N)=O)[C@@H]1O)c1cnc[nH]1 [NSC276382] | 37.70
C[C@@H](N)C(=O)NC(CO)C(O)C(N)C=O.Cl (some centres unmarked) [NSC278619] | 77.59
CC[C@H](C)C(=O)O[C@H]1CCC=C2C=C[C@H](C)[C@H](CC[C@@H]3C[C@@H](O)CC(=O)O3)[C@H]21 [NSC281245] | 54.75
CCCCCCCCCCCCCCCCCCOCC(O)CO (centres unmarked) [NSC284200] | 138.26
CC1(C)C[C@]23[C@@H]4COC(=O)[C@H]2CC[C@H]1[C@@H]3CC4=O [NSC284437] | 100.65
C=C(NC(=O)C(=C)NC(=O)c1csc(C2=N[C@@H]3c4csc(n4)[C@H]4NC(=O)c5csc(n5)[C@H]([C@](C)(O)[C@@H](C)O)NC(=O)[C@H]5CSC(=N5)/C(=C/C)NC(=O)[C@H]([C@@H](C)O)NC(=O)c5csc(n5)[C@]3(CC2)NC(=O)[C@H](C)NC(=O)C(=C)NC(=O)C(=C)NC(=O)[C@H](C(C)C)N[C@@H]2C=Cc3c([C@H](C)O)cc(nc3[C@H]2O)C(=O)O[C@@H]4C)n1)C(N)=O [NSC285116] | 79.00

SMILES | IN-GCN2 interaction (%)
C[C@]12C(=O)C=CCC1=CC[C@@H]1[C@@H]2CC[C@]2(O)C(=O)O[C@@]3(C)[C@H]4C[C@]5(C)[C@@H](CO[C@@]16O[C@@]32[C@H]5C6=O)C(=O)O4 [NSC287088] | 131.80
COc1cc2cc(c1Cl)N(C)C(=O)C[C@H](OC(=O)C(C)C)[C@]1(C)O[C@H]1[C@H](C)[C@@H]1C[C@@](O)(NC(=O)O1)[C@H](OC)/C=C/C=C(\C)C2 [NSC292222] | 93.28
CO[C@@H]1C[C@@H](C[C@H]2CC[C@H](C)[C@H]([C@@H](C)C(=O)[O-])O2)O[C@]2(O[C@](C)([C@H]3CC[C@@](C)([C@@H]4O[C@@H]([C@H]5O[C@@](O)(CO)[C@H](C)C[C@@H]5C)C[C@@H]4C)O3)C[C@H]2C)[C@@H]1C.[Na+] [NSC292567] | 95.66
CC(=O)OC1C2(CC3N4C(=O)C5(CO)SSC4(CC31O)C(=O)N5C)OC(C)C(C)(C)C2=O (centres unmarked) [NSC294408] | 104.55
C=C1C(=O)O[C@@H]2/C=C(/CO)CC/C=C(/CO)C[C@@H](OC(=O)C(C)C)[C@@H]12 [NSC295426] | 56.21
CC(=O)Oc1ccc2ccc(=O)oc2c1OC(C)=O [NSC301683] | 152.96
C=C1C(=O)O[C@@H]2C[C@@]3(C)CCC[C@H](C)C3=C[C@H]12 [NSC302289] | 117.43
C=C1C(=O)C2=CC1CCC(=O)C1(C)CCC(OC(C)=O)C(C)(C)C1CC2O (centres unmarked) [NSC302979] | 105.64
C=C1[C@@H](C)[C@H]2[C@H](Cc3ccccc3)NC(=O)C23[C@H](OC(C)=O)/C=C/[C@@](C)(O)C[C@@H](C)C/C=C/[C@H]3[C@@H]1O (some centres unmarked) [NSC305222] | 109.95
COc1c2c(c(CC=C(C)C)c3oc(=O)c(-c4ccc(O)cc4)c(O)c13)OC(C)(C)C=C2 [NSC307981] | 101.87
CO[C@@H]1/C=C/C=C(\C)Cc2cc(O)c(Cl)c(c2)N(C)C(=O)C[C@H](OC(=O)C(C)C)[C@]2(C)O[C@H]2[C@H](C)[C@@H]2C[C@@]1(O)NC(=O)O2 [NSC314018] | 97.15
Nc1ncnc2c1ncn2[C@@H]1C=C(CO)[C@@H](O)[C@H]1O [NSC316458] | 111.58
COc1cc2c(c(OC)c1OC)-c1ccc(SC)c(=O)cc1[C@@H](NC(=O)C(F)(F)F)CC2 [NSC320301] | 97.92
C[C@H](N)C(=O)N[C@@H]1[C@H]2C(=C(O)C[C@@H](O)[C@@H]2O)C(=O)O[C@]1(C)C(Cl)Cl [NSC325014] | 94.06
CC(O)C1/C=C/C=C/C(=O)OC2CC3OC4C5OC5(C)C(O)CC4(COC(=O)C(O)C(C)CCO1)C2(C)C31CO1 (centres unmarked) [NSC327993] | 115.91
CC1CCOC(=O)/C=C/C=C/C(=O)OC2CC3OC4C5OC5(C)C(O)CC4(COC(=O)C1O)C2(C)C31CO1 (centres unmarked) [NSC328166] | 102.91
CC(=O)O[C@@H]1[C@@H](O)[C@H](O[C@H]2[C@H](OC(=O)[C@H]3CC[C@H]4[C@@H](C3)O[C@@]3(C[C@H](OC(=O)/C=C/c5ccccc5)[C@H](C)CO3)[C@]43CO3)O[C@H](C)[C@@H](O)[C@@H]2OC(C)=O)O[C@H](C)[C@H]1O [NSC328426] | 91.16
COC1CC(C)C(OC)c2cc(O)cc(c2O)NC(=O)/C(C)=C\C=C/C(C)C(OC(N)=O)/C(C)=C\C(C)C1OC (centres unmarked) [NSC330500] | 77.16
CC(=O)O[C@H]1C(=O)[C@@]2(C)[C@H]([C@H](OC(=O)c3ccccc3)[C@]3(O)C[C@H](O)C(C)=C1C3(C)C)[C@]1(OC(C)=O)CO[C@@H]1C[C@@H]2O [NSC330753] | 109.90
Nc1ncnc2c1ncn2C1OCC(O)C1O (centres unmarked) [NSC330917] | 127.88
CCCn1cc2c3c(cccc31)[C@H]1C[C@@H](C)CN(C)[C@@H]1C2.O=C(O)C(O)C(O)C(=O)O [NSC332294] | 41.41
CO[C@@H](/C(C)=C/C=C/C(C)=C/c1coc(C)n1)[C@@H](C)[C@@H]1C[C@H](O)[C@@]2(C)O[C@@H]2/C=C/[C@@H](C)[C@H]2C[C@H](CC(=O)O2)C[C@@H]2O[C@H]2C(=O)O1 [NSC332598] | 94.06
C[C@@H]1C(=O)C[C@H]2C(C)(C)CCC[C@]2(C)[C@@]1(O)CCc1ccoc1 [NSC332876] | 44.59

same assay, conditions: screen, single dose 100 µM, single replicate; residual AlphaLISA signal normalized to DMSO control; listed as 265211

SMILES | IN-GCN2 interaction (%)
CCC1(O)CC(OC2CC(N(C)C)C(OC3CC(O)C(OC4CC(O)C(O)C(C)O4)C(C)O3)C(C)O2)c2c(cc3c(c2O)C(=O)c2c(O)ccc(O)c2C3=O)C1C(=O)OC (centres unmarked) [NSC265211] | 39.59
